Results as given in publication PMC7828231, “Delphinidin Increases the Sensitivity of Ovarian Cancer Cell Lines to 3-bromopyruvate” (International Journal of Molecular Sciences, 2021).

Assays:
PEO1 cells [1] = assay: Cell migration (scraped area closure); format: cell-based, human
Procedure: Ovarian cancer cells and human normal fibroblasts were seeded on a 24-well plate at a density of 7 × 10^4/well (PEO1), 6.5 × 10^4/well (SKOV3) and 6 × 10^4/well (MRC-5) in 700 µL of appropriate cell medium and cultured at 37 °C to reach 90–95% confluence. Then, the cells in the middle of the wells were scraped off using sterile pipette tips (100 µL), cell debris was removed by washing with medium containing 2% FBS and the tested compounds diluted with medium containing 2% FBS were added. Images of the scraped area were collected after 12 h and 24 h at 10× objective magnification using an Olympus CKX53 microscope with a U-TV0. 5XC-3 digital microscope camera. The obtained results were analyzed using ImageJ software. The percentage of scraped area closure was estimated as the ratio of area measured after 12- or 24-h incubation and the area at the beginning of the experiment.

PEO1 cells [2] = assay: ATP level (CellTiter-Glo); format: cell-based, human; settings: 25-µM D, 20 µM 3-BP, 24 h
Procedure: (§1) To determine the ATP level in the cells, the CellTiter-Glo® Luminescent Cell Viability Assay (Promega) was used. This method is based on the ATP-dependent conversion of luciferin to the luminescent oxyluciferin. Briefly, cells were seeded in a white/clear bottom 96-well plate with a density of 1 × 10^4/well (SKOV3 and PEO1) or 7.5 × 10^3/well (MRC-5). After 24-h incubation, the cells were treated with 25-µM D, a IC50 concentration of 3-BP (SKOV3 and MRC-5: 40 µM and PEO1: 20 µM) and both compounds simultaneously. The ATP level was determined after 24-h exposure to the tested compounds. The plate was equilibrated at room temperature for approximately 25 minutes. Next, 100 µL of the CellTiter-Glo® Reagent was added to each well, and the plate was shaken for 2 minutes. Then, the plate was left at room temperature for 10 minutes, and the luminescence was measured in a Spark multimode microplate reader (Tecan Group LTD., Männedorf, Switzerland).

SKOV3 cells [3] = assay: ATP level (CellTiter-Glo); format: cell-based, human; settings: 25-µM D, 40 µM 3-BP, 24 h
Procedure: as §1

MRC-5 fibroblasts [4] = assay: ATP level (CellTiter-Glo); format: cell-based, human; settings: 25-µM D, 40 µM 3-BP, 24 h
Procedure: as §1

PEO1 cells [5] = assay: Level of reactive oxygen species (DHE, DCFDA); format: cell-based, human; settings: 25-µM D, 20 µM 3-BP, 24 h
Procedure: (§2) The level of ROS in the MRC-5, SKOV3 and PEO1 cells after 24-h exposure to delphinidin chloride and 3-BP was assayed with 2′,7′-dichlorofluorescein diacetate (DCFDA) and dihydroethidium (DHE). Briefly, cells were seeded in a black 96-well flat clear-bottom plate at a density of 7.5 × 10^3/well for MRC-5 fibroblasts and 1 × 10^4 /well for cancer cells and allowed to attach at 37 °C for 24 h. After 24-h incubation, the medium was removed and replaced with a medium containing the examined substances at concentrations given previously. After incubation, the medium was removed and replaced by a 10-µM fluorescent probe (DHE or DCFDA) (100 µL/well). Stock solutions of the probes were prepared in DMSO, and working solutions were prepared in PBS. Fluorescence was measured at 490/529 nm (DCFDA) and 475/579 nm (DHE) for 2 h at 37 °C in 1-min intervals.

SKOV3 cells [6] = assay: Level of reactive oxygen species (DHE, DCFDA); format: cell-based, human; settings: 25-µM D, 40 µM 3-BP, 24 h
Procedure: as §2

MRC-5 fibroblasts [7] = assay: Level of reactive oxygen species (DHE, DCFDA); format: cell-based, human; settings: 25-µM D, 40 µM 3-BP, 24 h
Procedure: as §2

PEO1 cells [8] = assay: Mitochondrial membrane potential (JC-1); format: cell-based, human; settings: 25-µM D, 20 µM 3-BP, 24 h
Procedure: (§3) Changes of mitochondrial membrane potential was evaluated using 5,5′,6,6′-tetrachloro-1,1′,3,3′-tetraethyl-imidacarbocyanine iodide, 5,5′,6,6′-tetrachloro-1,1′,3,3′-tetraethylbenzimidazolocarbocyanine iodide (JC-1) with a Mitochondrial Membrane Potential Assay Kit.
(§4) The cells were seeded into black plates and treated as mentioned before. After 24h incubation with the studied compounds, the medium was discharged and replaced with 100x diluted JC-1 reagent in complete culture medium and incubated for 30 min in a CO2 incubator. Next, the plate was centrifuged at 4000 rpm for 5 min and afterwards the reagent was aspirated, and cells were washed with 150 μL/well Cell-Based Assay Buffer and centrifuged once more. After removing the supernatant, 100 μL/well of the new buffer was added. Fluorescence was measured at 540/570 nm (red fluorescence) and 485/535 nm (green fluorescence). The results were presented as a ratio of green to red fluorescence intensity ratio.

SKOV3 cells [9] = assay: Mitochondrial membrane potential (JC-1); format: cell-based, human; settings: 25-µM D, 40 µM 3-BP, 24 h
Procedure: as §3, §4

PEO1 cells [10] = assay: Atto-488-phalloidin and Mitotracker labeling (confocal); format: cell-based, human; settings: 24 h
Procedure: (§5) Cells were seeded on an 8-well chamber slide (Lab-Tek™ II Chamber Slide™ System cat. no. 154534, Thermo Scientific, Waltham, MA, USA) at a density of 2.5 × 10^4 cells/chamber and allowed to attach at 37 °C. Subsequently, PEO1 and SKOV3 cells were treated with 25-µM D, 20-µM or 40-µM 3-BP (depending on the cell line) or both substances together for 24 h. Following the treatment, the medium was removed and replaced with 200-nM solution of Mitotracker Deep Red FM (i) (cat. no. M22426, Thermo Scientific, Waltham, MA, USA) in PBS and incubated for 30 min; in a CO2 incubator, the cells were washed with PBS (300 μL/well) and fixed with 200-μL/well 3.7% formaldehyde for 10 min. Then, the cells were washed with PBS (200 μL/well), permeabilized with 0.1% Triton X-100 solution (200 μL/well) for 10 min and washed with PBS (700 μL/well).
(§6) Following the treatment, the medium was removed and replaced with 150 μL/well of phalloidin working solution (ii) (prepared according to the manufacturer’s protocols) and incubated for 60 min.
(§7) After staining i or ii, the fixed cells were washed again, 600-nM solution of DAPI in PBS was added (200 µL/well), the cells were incubated at room temperature for 60 minutes and their micrographs were taken using a Zeiss LSM 710 inverted confocal microscope (Oberkochen, Germany). The ratio of fluorescence intensity of the mitochondria and cytoskeleton (expressed as a mean gray value) was calculated using ImageJ software. The corrected total cell fluorescence (CTFT) per cell was calculated according to https://theolb.readthedocs.io/en/latest/imaging/measuring-cell-fluorescence-using-imagej.html.

SKOV3 cells [11] = assay: as above; format: cell-based, human; settings: 25-µM D, 40-µM 3-BP, 24 h
Procedure: as §5, §6, §7

22Rν1 cells = system: 22Rν1 cells; design: method as in PMID 18948740; settings: cited from earlier work
HCT116 cells = system: HCT116 cells; design: method as in PMID 18729103; settings: cited from earlier work

| SMILES | cell migration (PEO1 cells [1]) | ATP content (PEO1 cells [2]) | ATP content (SKOV3 cells [3]) | ATP content (MRC-5 fibroblasts [4]) | level of DCFDA-reactive ROS (PEO1 cells [5]) | level of DHE-detectable ROS (PEO1 cells [5]) | level of DCFDA-reactive ROS (SKOV3 cells [6]) | level of DHE-detectable ROS (SKOV3 cells [6]) | level of DCFDA-reactive ROS (MRC-5 fibroblasts [7]) | level of DHE-detectable ROS (MRC-5 fibroblasts [7]) | mitochondrial potential (JC-1 fluorescence ratio) (PEO1 cells [8]) | mitochondrial potential (JC-1 fluorescence ratio) (SKOV3 cells [9]) | increase in the intensity of staining with Atto-488-phalloidin with respect to the control (PEO1 cells [10]; 20-µM 3-BP) [%] | decrease in the intensity of staining with Mitotracker Red with respect to the control (PEO1 cells [10]; 25-µM D, 20-µM 3-BP) | decrease in the intensity of staining with Atto-488-phalloidin with respect to the control (SKOV3 cells [11]) | decrease in the intensity of staining with Mitotracker Red with respect to the control (SKOV3 cells [11]) | IC50 (22Rν1 cells) [µM] | IC50 (HCT116 cells) [µM] | decrease in the intensity of staining with Atto-488-phalloidin with respect to the control (PEO1 cells [10]; 25-µM D, 20-µM 3-BP) [%] | increase in the intensity of staining with Mitotracker Red with respect to the control (PEO1 cells [10]; 25-µM D) |
| --- | --- | --- | --- | --- | --- | --- | --- | --- | --- | --- | --- | --- | --- | --- | --- | --- | --- | --- | --- | --- |
| O=C(O)C(=O)CBr [3-BP, 3-bromopyruvic acid] | significantly inhibited | decrease | neither 3-BP nor D affected | not affected | increased | decreased | not affected | not affecting | not affected | decreased | decreased | increased | ~51 | about 7% | about 33% | about 39% |  |  |  |  |
| Oc1cc(O)c2cc(O)c(-c3cc(O)c(O)c(O)c3)[o+]c2c1 [Delphinidin chloride, 3,3′,4′,5,5′,7-hexahydroxyflavylium] |  | did not change | neither 3-BP nor D affected | not affected | increased | increased | not affected |  | not affected | decreased | decreased | increased |  |  | ~67% | ~94% | 90 | 110 | ~17 | about 7% |
